Reference: patent publication US11203594B2, “Anti-proliferative agents for treating PAH” (Pfizer Inc., priority 2019, dated 2021)

Target: CDK6/Cyclin D1 (Homo sapiens (Human), UniProt Q00534)
Test: CDK6/Cyclin D1 Mobility Shift Assay (MSA), Ki by Morrison equation
Assay type: biochemical
Details: geometric mean, tested in CDK6/D1 Ki assay using MSA
From the text: CDK6/Cyclin D1 Mobility Shift Assay (MSA)
The purpose of the CDK6/Cyclin D1 assay is to evaluate the inhibition (% inhibition, Kiapp and Ki values) in the presence of small molecule inhibitors by using a fluorescence based microfluidic mobility shift assay. CDK6/Cyclin D1 catalyzes the production of ADP from ATP that accompanies the phosphoryl transfer to the substrate peptide 5-FAM-Dyrktide The mobility shift assay electrophoretically separates the fluorescently labeled peptides (substrate and phosphorylated product) following the kinase reaction. Both substrate and product are measured and the ratio of these values is used to generate % conversion of substrate to product by the LabChip EZ Reader. Typical reaction solutions contained 2% DMSO (±inhibitor), 2% glycerol, 10 mM MgCl2, 1 mM DTT, 3.5 mM ATP, 0.005% Tween 20 (TW-20), 3 μM 5-FAM-Dyrktide, 4 nM activated CDK6/Cyclin D1 in 40 mM HEPES buffer at pH 7.5. […]
For all the CDK4 and CDK6 assays the Ki constant for compounds were calculated for each enzyme using the Morrison equation. Fractional activity was measured at different compound concentrations, [I] and the data fit to the Morrison equation where [E] is the enzyme concentration, [S] is the ATP concentration, and Kn^App is the apparent Km for ATP for each enzyme under each assay format. […]

Chain of CDK6/Cyclin D1 (Q00534 whole entry): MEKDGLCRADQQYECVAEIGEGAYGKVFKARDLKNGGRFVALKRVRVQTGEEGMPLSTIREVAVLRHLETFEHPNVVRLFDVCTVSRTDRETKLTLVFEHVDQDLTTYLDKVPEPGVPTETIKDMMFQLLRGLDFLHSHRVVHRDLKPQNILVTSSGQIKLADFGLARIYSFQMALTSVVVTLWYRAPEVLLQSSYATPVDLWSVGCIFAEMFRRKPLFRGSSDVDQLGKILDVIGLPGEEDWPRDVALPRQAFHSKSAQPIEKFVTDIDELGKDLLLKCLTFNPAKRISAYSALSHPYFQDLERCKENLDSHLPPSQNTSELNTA
Chain of CDK6/Cyclin D1 (P24385 whole entry partner): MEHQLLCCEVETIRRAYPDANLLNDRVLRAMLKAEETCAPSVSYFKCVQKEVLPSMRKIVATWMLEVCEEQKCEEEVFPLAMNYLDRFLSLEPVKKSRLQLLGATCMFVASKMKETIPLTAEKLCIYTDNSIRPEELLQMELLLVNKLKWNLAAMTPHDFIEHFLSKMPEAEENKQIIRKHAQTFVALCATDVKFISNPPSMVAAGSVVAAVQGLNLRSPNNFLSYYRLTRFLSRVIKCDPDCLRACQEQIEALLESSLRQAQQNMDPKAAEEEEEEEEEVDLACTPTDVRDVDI

Row | Ki (read-out: CDK6/Cyclin D3: GMean Ki (nM) (footnote c: CDK6/D1 Ki)) | SMILES | CDK6/Cyclin D3: GMean Ki (nM) (footnote c: CDK6/D1 Ki)
1 |  | CC(=O)c1c(C)c2cnc(N[C@@H]3CCOC[C@H]3O)nc2n([C@@H]2CCC[C@]2(C)F)c1=O (mixture of isomers) [Example 17, 6-Acetyl-8-[(1R,2S)-2-fluoro-2-methylcyclopentyl]-2-{[(3S,4R)-3-hydroxytetrahydro-2H-pyran-4-yl]amino}-5-methylpyrido[2,3-d]pyrimidin-7(8H)-one and 6-Acetyl-8-[(1S,2R)-2-fluoro-2-methylcyclopentyl]-2-{[(3S,4R)-3-hydroxytetrahydro-2H-pyran-4-yl]amino}-5-methylpyrido[2,3-d]pyrimidin-7(8H)-one] | 10.5^c nM
2 | 2.8 | CC(=O)c1c(C)c2cnc(N[C@@H]3CCOC[C@H]3O)nc2n([C@H]2CCC[C@]2(C)F)c1=O (single isomer, unassigned) [Example 22] | 
